Test results as given in the supplement of paper PMC5412046.
Counter-ions that a name gives are not always drawn.

How the values were obtained:
[1] = test system: SB.mhdgc-1; assay: area under the dose-response curve of % viability (trapezoidal, 11 doses) (% viability x log10 concentration); higher = less cytotoxic; settings: SB.mhdgc-1 (hereditary c.1380delA CDH1 gastric cancer)
Outline: (§1)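 Viability, normalised to DMSO, is listed either at the highest concentration or as trapezoidal area under the curve. It was measured in patient-derived gastric cancer cells, hereditary or sporadic, exposed for 48 h to 11 threefold-diluted compound concentrations and then assayed with CellTiter-Glo luminescence.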

[2] = test system: SB.msgc-1; assay: as above; settings: SB.msgc-1 (sporadic gastric cancer)
Outline: as §1

[3] = test system: SB.mhdgc-1; assay: viability at highest tested concentration (MAXR) relative to DMSO; higher = less cytotoxic; settings: SB.mhdgc-1 (hereditary c.1380delA CDH1 gastric cancer)
Outline: as §1

[4] = test system: SB.msgc-1; assay: as above; settings: SB.msgc-1 (sporadic gastric cancer)
Outline: as §1

| Structure (SMILES) | area under the dose-response curve [1] | area under the dose-response curve [2] | viability [3] [%] | viability [4] [%] |
| --- | --- | --- | --- | --- |
| COc1c(O)cc2c(c1O)[C@@H]1O[C@H](CO)[C@@H](O)[C@H](O)[C@H]1OC2=O [Bergenin] (top concentration 46.0829 µM) | 571 | 567 | 88.2 | 115 |
| C[N+](C)(C)CC(=O)O.[Cl-] [Betaine] (top concentration 46.0829 µM) | 426 | 507 | 46.7 | 74 |
| CCC(=O)OCC(=O)[C@@]1(OC(=O)CC)[C@@H](C)C[C@H]2[C@@H]3CCC4=CC(=O)C=C[C@]4(C)[C@@]3(F)[C@@H](O)C[C@@]21C [Betamethasone dipropionate] (top concentration 46.0829 µM) | 476 | 537 | 48.5 | 89.9 |
| CCCCC(=O)O[C@]1(C(=O)CO)[C@H](C)C[C@H]2[C@@H]3CCC4=CC(=O)C=C[C@]4(C)[C@@]3(F)[C@@H](O)C[C@@]21C [Betamethasone valerate] (top concentration 46.0829 µM) | 478 | 543 | 110 | 102 |
| C[C@H]1CC2C3CCC/4=C/C(=O)/C=C\[C@]4(C)[C@@]3(F)[C@@H](O)C[C@]2(C)[C@@]1(O)C(=O)CO (some centres not stated) [Betamethasone] (top concentration 46.0829 µM) | 512 | 571 | 60 | 65.2 |
| O=C(O)C1=NC(C(=O)O)CC(/C=C/N2c3cc(O)c(OC4OC(CO)C(O)C(O)C4O)cc3CC2C(=O)O)=C1 (configuration not stated) [Betanin] (top concentration 46.0829 µM) | 628 | 331 | 133 | 78.6 |
| CC(C)NCC(O)COc1ccc(CCOCC2CC2)cc1 (configuration not stated) [Betaxolol hydrochloride] (top concentration 46.0829 µM) | 610 | 539 | 129 | 102 |
| CC(C[N+](C)(C)C)OC(N)=O (configuration not stated) [Bethanechol chloride] (top concentration 46.0829 µM) | 573 | 563 | 119 | 102 |
| C=C(C)[C@@H]1CC[C@]2(C(=O)O)CC[C@]3(C)[C@H](CC[C@@H]4[C@@]5(C)CC[C@H](O)C(C)(C)[C@@H]5CC[C@]43C)[C@@H]12 [Betulinic acid] (top concentration 46.0829 µM) | 583 | 474 | 76.1 | 48.8 |
| C=C(c1ccc(C(=O)O)cc1)c1cc2c(cc1C)C(C)(C)CCC2(C)C [Bexarotene] (top concentration 46.0829 µM) | 513 | 457 | 108 | 68.6 |
| CC(O)(C[S+](=O)([O-])c1ccc(F)cc1)C(=O)Nc1ccc(C#N)c(C(F)(F)F)c1 (configuration not stated) [Bicalutamide] (top concentration 46.0829 µM) | 314 | 183 | 2.85 | 0.377 |
| CC(C)(C)[C@]1(O)C[C@@H]2OC(=O)C[C@@]23C(=O)O[C@@H]2OC(=O)[C@H](O)C213 (some centres not stated) [Bilobalide] (top concentration 46.0829 µM) | 577 | 501 | 109 | 80.6 |
| CCNC(=O)CCC/C=C\C[C@@H]1[C@@H](/C=C/C(O)CCc2ccccc2)[C@@H](O)C[C@@H]1O (some centres not stated) [Bimatoprost] (top concentration 46.0829 µM) | 559 | 552 | 62.2 | 95.7 |
| CC(C)(OCc1nn(Cc2ccccc2)c2ccccc12)C(=O)O [Bindarit] (top concentration 46.0829 µM) | 530 | 310 | 72.5 | 23.8 |
| COC1=CC=C(C=C1)C/2=C/OC3=C(C(=CC(=C3)O)O)C2=O [Biochanin A] (top concentration 46.0829 µM) | 503 | 575 | 120 | 119 |
| N=C1S/C(=C\c2ccc(-c3ccc4c(c3)C(=O)NC4=O)o2)C(=O)N1c1ccc(Br)cc1 [Bioymifi] (top concentration 46.0829 µM) | 417 | 439 | 1.27 | 35.7 |
| OC(CCN1CCCCC1)(C2CC\3CC2\C=C3)C4=CC=CC=C4 (configuration not stated) [Biperiden] (top concentration 46.0829 µM) | 575 | 576 | 95.5 | 119 |
| CC[C@H](NC(=O)[C@H](C)NC)C(=O)N1C[C@@H](O)C[C@H]1Cc1c(-c2[nH]c3cc(F)ccc3c2C[C@@H]2C[C@H](O)CN2C(=O)[C@H](CC)NC(=O)[C@H](C)NC)[nH]c2cc(F)ccc12 [Birinapant] (top concentration 46.0829 µM) | 315 | 399 | 25.4 | 32.2 |
| CC(C)NCC(O)COc1ccc(COCCOC(C)C)cc1 (configuration not stated) [Bisoprolol] (top concentration 46.0829 µM) | 508 | 555 | 107 | 119 |
| Cc1c(N)nc([C@H](CC(N)=O)NC[C@@H](N)C(N)=O)nc1C(=O)N[C@H](C(=O)N[C@@H](C)[C@H](O)[C@@H](C)C(=O)N[C@@H](C(=O)NCCc1nc(-c2nc(C(=O)NCCC[S+](C)C)cs2)cs1)[C@@H](C)O)C(O[C@H]1O[C@H](CO)[C@H](O)[C@@H](O)[C@H]1O[C@H]1O[C@H](CO)[C@@H](O)[C@H](OC(N)=O)[C@@H]1O)c1c[nH]cn1 (some centres not stated) [Bleomycin sulfate] (top concentration 46.0829 µM) | 451 | 425 | 49.9 | 55.3 |
| CC(C)C[C@H](NC(=O)[C@H](Cc1ccccc1)NC(=O)c1cnccn1)B(O)O [Bortezomib] (top concentration 46.0829 µM) | 157 | 137 | 3.74 | 3.19 |
| COc1cc(Nc2c(C#N)cnc3cc(OCCCN4CCN(C)CC4)c(OC)cc23)c(Cl)cc1Cl [Bosutinib] (top concentration 46.0829 µM) | 494 | 441 | 15.6 | 36.6 |

| Structure (SMILES) | area under the dose-response curve [1] | area under the dose-response curve [2] | viability [3] [%] | viability [4] [%] |
| --- | --- | --- | --- | --- |
| Cc1cc2c(F)c(Oc3ncnn4cc(OC[C@@H](C)O)c(C)c34)ccc2[nH]1 [Brivanib] (top concentration 46.0829 µM) | 504 | 499 | 20.9 | 58.9 |
| O=c1[nH]c(=O)n([C@H]2C[C@H](O)[C@@H](CO)O2)cc1/C=C/Br [Brivudine] (top concentration 46.0829 µM) | 563 | 487 | 121 | 112 |
| CN(Cc1cc(Br)cc(Br)c1N)C1CCCCC1 [Bromhexine hydrochloride] (top concentration 46.0829 µM) | 578 | 575 | 106 | 105 |
| CCCC1OC2C[C@H]3[C@@H]4CCC5=CC(=O)C=C[C@]5(C)[C@H]4C(O)C[C@]3(C)[C@]2(C(=O)CO)O1 (some centres not stated) [Budesonide] (top concentration 46.0829 µM) | 512 | 552 | 78.6 | 62.9 |
| CCCCOc1ccc(CC(=O)NO)cc1 [Bufexamac] (top concentration 46.0829 µM) | 479 | 494 | 1.95 | 56.1 |
| COc1cc(OC)c(C(=O)CCCN2CCCC2)c(OC)c1 [Buflomedil hydrochloride] (top concentration 46.0829 µM) | 514 | 487 | 89.9 | 86.9 |
| CCCCNc1cc(C(=O)O)cc([S+](N)(=O)[O-])c1Oc1ccccc1 [Bumetanide] (top concentration 46.0829 µM) | 525 | 569 | 120 | 116 |
| CC(NC(C)(C)C)C(=O)c1cccc(Cl)c1 (configuration not stated) [Bupropion hydrochloride] (top concentration 46.0829 µM) | 522 | 514 | 89.5 | 102 |
| C[S+](=O)([O-])OCCCCO[S+](C)(=O)[O-] [Busulfan] (top concentration 46.0829 µM) | 501 | 510 | 23.2 | 52.1 |
| CCCC[S+](=N)([O-])CCC(N)C(=O)O (configuration not stated) [Buthionine sulphoximine] (top concentration 46.0829 µM) | 517 | 524 | 111 | 103 |
| Clc1ccc(CCC(Cn2ccnc2)Sc2c(Cl)cccc2Cl)cc1 (configuration not stated) [Butoconazole nitrate] (top concentration 46.0829 µM) | 426 | 456 | 24.9 | 31.7 |
| CCCC[N+]1(C)[C@@H]2CC(OC(=O)[C@H](CO)c3ccccc3)C[C@H]1[C@@H]1O[C@@H]12 (some centres not stated) [Butylscopolamine bromide] (top concentration 46.0829 µM) | 579 | 527 | 109 | 116 |
| C=C1C(=O)OC(CCCCCCCC)C1C(=O)O (configuration not stated) [C-75] (top concentration 46.0829 µM) | 530 | 560 | 94.9 | 54.4 |
| COc1ccc([S+](=O)([O-])Nc2cc(-c3c(O)ccc4ccccc34)c(O)c3ccccc23)cc1 [C-188-9] (top concentration 46.0829 µM) | 423 | 469 | 3.52 | 43.1 |
| CCCNC(=O)[C@H]1O[C@@H]1C(=O)N[C@H](C(=O)N1CCC[C@H]1C(=O)OC)C(C)CC (some centres not stated) [CA-074 Me] (top concentration 46.0829 µM) | 512 | 516 | 19.7 | 13.6 |
| O=C(NCc1ccccc1)[C@H](Cc1ccccc1)NC(=O)[C@H]1O[C@@H]1C(=O)NCCc1ccc(O)cc1 [CAA0225] (top concentration 46.0829 µM) | 500 | 466 | 45.6 | 57.1 |
| CC[C@H](NC1=C2N=C[NH]C2=NC=N1)C/3=N/C4=C(C(=CC=C4)F)C(=O)N3C5=CC=CC=C5 [CAL-101] (top concentration 46.0829 µM) | 436 | 455 | 9.41 | 28.5 |
| OCCNC1CCCc2c1[nH]c1ccc(-c3ccccc3)cc21 (configuration not stated) [CASIN] (top concentration 46.0829 µM) | 481 | 500 | 0.554 | 28.3 |
| c1cc(OCCN2CCCCC2)cc(-c2n[nH]c3ccc(-c4nc[nH]n4)cc23)c1 [CC-401] (top concentration 46.0829 µM) | 500 | 517 | 44.7 | 76.6 |
| Cc1c(CCOc2ccc(C(=O)O)cc2)c2cc(Cl)ccc2n1C(c1ccccc1)c1ccccc1 [CDIBA] (top concentration 46.0829 µM) | 531 | 543 | 48.1 | 82.8 |
| Cc1ccc(Nc2cc(-c3cccc(N4C(=O)c5ccccc5C4=O)c3)ncn2)cc1N[S+](C)(=O)[O-] [CDK9 inhibitor] (top concentration 46.0829 µM) | 423 | 492 | 43.4 | 31.5 |
